Experimental data from patent US20160039825A1 (BIOGEN MA INC., priority 2013, published 2016).

Biological target: T1, Human ATX protein (Homo sapiens, UniProt Q13822)
T1 construct: made in house
Assay: Autotaxin (ATX) assay, FRET with FS-3 substrate
Assay type: biochemical
Settings: 10 uM compound
Text: ATX (Autotaxin) is a 125 KDa glycoprotein with lysophospholipase D (LPLD) activity that generates the bioactive lipid lysophosphatidic acid (LPA) from lysophosphatidylcholine (LPC). The ATX biochemical assay utilizes a FRET (fluorescence resonance energy transfer) technology platform. The fluorescence signal of FRET substrate FS-3 is quenched due to intra-molecular FRET of a fluorophore to a non-fluorescing quencher (Ferguson, C. G., et al., Org Lett. 2006 May 11; 8(10): 2023-2026, which is incorporated by reference in its entirety). ATX catalyzes the hydrolysis of the substrate which separates the dabsyl quencher from the fluorescein reporter, which becomes fluorescent. The reaction is monitored by a SpectraMax M5 (Molecular Devices, Sunnyvale, Calif.) with at excitation wavelength 485 nm and emission wavelength […].
Fatty acid free-BSA (Sigma A8806): 10 mg/mL in H2O, stored at 4° C.
2×ATX assay buffer: 100 mM Tris, 280 mM NaCl, 10 mM KCl, 2 mM CaCl2, 2 mM MgCl2, pH 7.4.
Human ATX protein: expressed and purified in house. Stored at −80° C.
Substrate FS-3 (Echelon, L-2000): 100 μg in 77.74 μL H2O (1 mM stock), stored at −20° C.
384-well flat bottom plates—Corning #3575.
Compound dilution—All compounds were provided at 10 mM in 100% DMSO. In the first well, 2 μL of 10 mM compound was added to 78 μL of DMSO (1:40 dilution). In subsequent wells 3-fold dilution (total 10 dilutions) were performed.
1×ATX assay buffer was made up with a final concentration of 1 mg/mL fatty acid free-BSA using 2×ATX assay buffer, 10 mg/ml fatty acid free-BSA and ddH2O.
ATX protein was diluted with 1×ATX assay buffer to a concentration of 1.32 μg/mL (1.32×). 38 μL was added per well to the assay plate. The final concentration of ATX in the reaction as 1.0 μg/mL.
2 μL per well of compounds was transferred to provide the desired concentration. The plate was centrifuged, then incubated at room temperature for 30 minutes on the shaker.
FS-3 was diluted with 1×ATX assay buffer to a concentration of FS-3 of 10 μM (5×). Then, 10 μL was added per well to the assay plate. The final concentration of FS-3 in the reaction was 2 μM. The plate was centrifuged. The plate was kept shaking at room temperature for 2 hours. Because FS-3 substrate is light sensitive, plates were kept covered and protected from light.
Fluorescence was measured using SpectraMax M5 (excitation at 485 nm/emission at 538 nm, top read).

Going from `O=C(OCc1cc(C(F)(F)F)cc(C(F)(F)F)c1)N1CCn2nc(Br)cc2C1` [Example 407] to `Nc1cc2n(n1)CCCN(C(=O)OCc1cc(C(F)(F)F)cc(C(F)(F)F)c1)C2` [Example 279, 3,5-Bis(trifluoromethyl)benzyl 2-amino-7,8-dihydro-4H-pyrazolo[1,5-a][1,4]diazepine-5(6H)-carboxylate], the inhibition at 10 µM rises from 50% to 60%.

Same assay, conditions: upper bound bins (no greater than 100, 250 or 500 nM); FS-3 2 μM, ATX 1.0 μg/mL

`CC(C)C(Nc1cc2n(n1)CCCN(C(=O)OCc1cc(C(F)(F)F)cc(C(F)(F)F)c1)C2)C(=O)O` (stereo not shown) [Example 363] and `CC(NC1CC1)c1cc2n(n1)CCCN(C(=O)OCc1cc(C(F)(F)F)cc(C(F)(F)F)c1)C2` (stereo not shown) [Example 508] cannot be ordered by IC50: no more than 100 nM for the first, no more than 100 nM for the second.

`C[C@@H]1CNC[C@H](C)N1C(=O)c1cc2n(n1)CCCN(C(=O)OCc1cc(Cl)cc(C(F)(F)F)c1)C2` [Example 164] and `C[C@@H]1CNC[C@@H](C)N1C(=O)c1cc2n(n1)CCCN(C(=O)OCc1cc(C(F)(F)F)cc(C(F)(F)F)c1)C2` [Example 248] cannot be ordered by IC50: no more than 100 nM for the first, no more than 100 nM for the second.

`O=C(CN1CC2CC2C1)c1cc2n(n1)CCN(C(=O)OCc1cc(C(F)(F)F)cc(C(F)(F)F)c1)C2` (stereo not shown) [Example 258] and `NC1CN(C(=O)c2cc3n(n2)CCN(C(=O)OCc2cc(C(F)(F)F)cc(C(F)(F)F)c2)C3)C1` [Example 424] cannot be ordered by IC50: no more than 100 nM for the first, no more than 100 nM for the second.

`O=C(OCc1cc(C(F)(F)F)cc(C(F)(F)F)c1)N1CCCn2nc(C(=O)N3CC4CCC3CN4)cc2C1` (stereo not shown) [Example 224] and `N#CC1CNCCN1C(=O)c1cc2n(n1)CCCN(C(=O)OCc1cc(C(F)(F)F)cc(C(F)(F)F)c1)C2` (stereo not shown) [Example 245] cannot be ordered by IC50: no more than 100 nM for the first, no more than 100 nM for the second.

`O=C(OCc1cc(C(F)(F)F)cc(C(F)(F)F)c1)N1CCCn2nc(-c3nnn[nH]3)cc2C1` [Example 136, 3,5-Bis(trifluoromethyl)benzyl 2-(1H-tetrazol-5-yl)-7,8-dihydro-4H-pyrazolo[1,5-a][1,4]diazepine-5(6H)-carboxylate] and `Cc1nnc(-c2cc3n(n2)CCCN(C(=O)OCc2cc(C(F)(F)F)cc(C(F)(F)F)c2)C3)o1` [Example 119, 3,5-Bis(trifluoromethyl)benzyl 2-(5-methyl-1,3,4-oxadiazol-2-yl)-7,8-dihydro-4H-pyrazolo[1,5-a][1,4]diazepine-5(6H)-carboxylate] cannot be ordered by IC50: no more than 100 nM for the first, no more than 100 nM for the second.

`CC(C)(C)NC(=O)c1cc2n(n1)CCCN(C(=O)OCc1cc(Cl)cc(Cl)c1)C2` [Example 14, 3,5-Dichlorobenzyl 2-(tert-butylcarbamoyl)-7,8-dihydro-4H-pyrazolo[1,5-a][1,4]diazepine-5(6H)-carboxylate] and `NC(=O)c1cc2n(n1)CCCN(C(=O)OCc1cc(Cl)cc(Cl)c1)C2` [Example 102, 3,5-Dichlorobenzyl 2-carbamoyl-7,8-dihydro-4H-pyrazolo[1,5-a][1,4]diazepine-5(6H)-carboxylate] cannot be ordered by IC50: no more than 250 nM for the first, no more than 100 nM for the second.

`CC1CCN(C(=O)c2cc3n(n2)CCN(C(=O)OCc2cc(C(F)(F)F)cc(C(F)(F)F)c2)C3)CC1` [Example 488] and `O=C(OCc1cc(C(F)(F)F)cc(C(F)(F)F)c1)N1CCn2nc(C(=O)N3CC(O)C3)cc2C1` [Example 483] cannot be ordered by IC50: no more than 100 nM for the first, no more than 100 nM for the second.

`O=C(OCc1cc(Cl)cc(C(F)(F)F)c1)N1CCCn2nc(C(=O)N3CC4CCC(C3)N4)cc2C1` [Example 209] and `CNC1CN(C(=O)c2cc3n(n2)CCCN(C(=O)OCc2cc(Cl)cc(C(F)(F)F)c2)C3)C1` [Example 202] cannot be ordered by IC50: no more than 100 nM for the first, no more than 100 nM for the second.

`O=C(OCc1cc(Cl)cc(C(F)(F)F)c1)N1CCCn2nc(-c3ccncc3)cc2C1` [Example 369, 3-chloro-5-(trifluoromethyl)benzyl 2-(pyridin-4-yl)-7,8-dihydro-4H-pyrazolo[1,5-a][1,4]diazepine-5(6H)-carboxylate] and `O=C1CN(C(=O)c2cc3n(n2)CCCN(C(=O)OCc2cc(Cl)cc(C(F)(F)F)c2)C3)CCN1` [Example 212] cannot be ordered by IC50: no more than 100 nM for the first, no more than 100 nM for the second.

`O=C(NCCO)c1cc2n(n1)CCN(C(=O)OCc1cc(C(F)(F)F)cc(C(F)(F)F)c1)C2` [Example 460, 3,5-bis(trifluoromethyl)benzyl 2-((2-hydroxyethyl)carbamoyl)-6,7-dihydropyrazolo[1,5-a]pyrazine-5(4H)-carboxylate] and `O=C(NC1CC(O)C1)c1cc2n(n1)CCCN(C(=O)OCc1cc(C(F)(F)F)cc(C(F)(F)F)c1)C2` (stereo not shown) [Example 504] cannot be ordered by IC50: no more than 100 nM for the first, no more than 100 nM for the second.

`N#Cc1cc2n(n1)CCCN(C(=O)OCc1cc(F)cc(C(F)(F)F)c1)C2` [Example 129] and `Cc1cc2n(n1)CCCN(C(=O)OCc1cc(F)cc(C(F)(F)F)c1)C2` [Example 128, 3-Fluoro-5-(trifluoromethyl)benzyl 2-methyl-7,8-dihydro-4H-pyrazolo[1,5-a][1,4]diazepine-5(6H)-carboxylate] cannot be ordered by IC50: no more than 500 nM for the first, no more than 250 nM for the second.

`CCC1(CC)CNCCN1C(=O)c1cc2n(n1)CCCN(C(=O)OCc1cc(Cl)cc(C(F)(F)F)c1)C2` [Example 231] and `O=C(OCc1cc(Cl)cc(C(F)(F)F)c1)N1CCCn2nc(C(=O)N3CCNCC34CC4)cc2C1` [Example 210] cannot be ordered by IC50: no more than 100 nM for the first, no more than 100 nM for the second.

`CN1CCN(C(=O)c2cc3n(n2)CCCN(C(=O)OCc2cc(C(F)(F)F)cc(C(F)(F)F)c2)C3)CC1` [Example 215] and `CNC1CN(C(=O)c2cc3n(n2)CCCN(C(=O)OCc2cc(C(F)(F)F)cc(C(F)(F)F)c2)C3)C1` [Example 242] cannot be ordered by IC50: no more than 100 nM for the first, no more than 100 nM for the second.

`O=C(OCc1cc(C(F)(F)F)cc(C(F)(F)F)c1)N1CCCn2nc(C3=CCNCC3)cc2C1` [Example 373, 3,5-bis(trifluoromethyl)benzyl 2-(1,2,3,6-tetrahydropyridin-4-yl)-7,8-dihydro-4H-pyrazolo[1,5-a][1,4]diazepine-5(6H)-carboxylate] and `CN1C2C=C(c3cc4n(n3)CCCN(C(=O)OCc3cc(C(F)(F)F)cc(C(F)(F)F)c3)C4)CC1CC2` (stereo not shown) [Example 379] cannot be ordered by IC50: no more than 100 nM for the first, no more than 100 nM for the second.

`O=C(O)C1CC2CCCC(C1)N2C(=O)c1cc2n(n1)CCN(C(=O)CCc1cc(Cl)cc(Cl)c1)C2` (stereo not shown) [Example 92, 9-(5-(3-(3,5-Dichlorophenyl)propanoyl)-4,5,6,7-tetrahydropyrazolo[1,5-a]pyrazine-2-carbonyl)-9-azabicyclo[3.3.1]nonane-3-carboxylic acid] and `CCN1CCN(C(=O)c2cc3n(n2)CCCN(C(=O)OCc2cc(Cl)cc(C(F)(F)F)c2)C3)C(C)(C)C1` [Example 172] cannot be ordered by IC50: no more than 100 nM for the first, no more than 100 nM for the second.

`O=C(OCc1cc(C(F)(F)F)cc(C(F)(F)F)c1)N1CCCn2nc(CN3C4CCCC3CCC4)cc2C1` [Example 293] and `O=C(OCc1cc(C(F)(F)F)cc(C(F)(F)F)c1)N1CCCn2nc(S(=O)(=O)N3C4CCCC3CCC4)cc2C1` [Example 306] cannot be ordered by IC50: no more than 100 nM for the first, no more than 100 nM for the second.

`CCOC(=O)c1nn2c(c1Cl)CN(C(=O)OCc1cc(C(F)(F)F)cc(C(F)(F)F)c1)CC2` [Example 112, 5-(3,5-Bis(trifluoromethyl)benzyl) 2-ethyl 3-chloro-6,7-dihydropyrazolo[1,5-a]pyrazine-2,5(4H)-dicarboxylate] and `O=C(OCc1cc(C(F)(F)F)cc(C(F)(F)F)c1)N1CCn2nc(-c3cn[nH]c3)cc2C1` [Example 500] cannot be ordered by IC50: no more than 250 nM for the first, no more than 100 nM for the second.

`CCN1CCN(C(=O)c2cc3n(n2)CCCN(C(=O)OCc2cc(C(F)(F)F)cc(C(F)(F)F)c2)C3)C(C)(C)C1` [Example 244] and `CC1(C)CNCCN1C(=O)c1cc2n(n1)CCN(C(=O)OCc1cc(C(F)(F)F)cc(C(F)(F)F)c1)C2` [Example 441] cannot be ordered by IC50: no more than 100 nM for the first, no more than 100 nM for the second.

`CC(C)(C)OC(=O)N1CCN(C(=O)c2cc3n(n2)CCN(C(=O)OCc2cc(C(F)(F)F)cc(C(F)(F)F)c2)C3)C(C)(C)C1` [Example 462] and `CC1(C)COCCN1CC(=O)c1cc2n(n1)CCN(C(=O)OCc1cc(C(F)(F)F)cc(C(F)(F)F)c1)C2` [Example 260] cannot be ordered by IC50: no more than 100 nM for the first, no more than 100 nM for the second.

`CC(NC1=NCCS1)c1cc2n(n1)CCCN(C(=O)OCc1cc(Cl)cc(C(F)(F)F)c1)C2` (stereo not shown) [Example 156, 3-chloro-5-(trifluoromethyl)benzyl 2-(1-((4,5-dihydrothiazol-2-yl)amino)ethyl)-7,8-dihydro-4H-pyrazolo[1,5-a][1,4]diazepine-5(6H)-carboxylate] and `CC1CN(CC(=O)c2cc3n(n2)CCCN(C(=O)OCc2cc(Cl)cc(C(F)(F)F)c2)C3)CC(C)O1` (stereo not shown) [Example 269] cannot be ordered by IC50: no more than 100 nM for the first, no more than 100 nM for the second.

For `CC1CC(c2cc3n(n2)CCCN(C(=O)OCc2cc(C(F)(F)F)cc(C(F)(F)F)c2)C3)CC(C)N1` (stereo not shown) [Example 382], the IC50 was no more than 100 nM.
